Assay results reported in patent US20180055857A1, “TREATMENT OF ACNE VULGARIS WITH SEQUENTIAL TOPICAL FORMULATIONS COMPRISING ANTIMICROBIAL ORGANIC ACID ANIONS IN ALKALINE PHASE” (KANTIAN SCIENCES CORPORATION, priority 2015, published 2018).
Where two headings read alike, the source gives them in different places.

Key:
Listeria monocytogenes = settings: beef tissue briefly dipped in a 1% acid solution at 55° C.; cited from earlier work
E. coli O157:H7 = settings: beef tissue briefly dipped in a 1% acid solution at 55° C.; cited from earlier work

| SMILES | % HONO (pH 2.6) | % NO2^− (pH 2.6) | % HONO (pH 2.8) | % NO2^− (pH 2.8) | % HONO (pH 3.0) | % NO2^− (pH 3.0) | % HONO (pH 3.3) | % NO2^− (pH 3.3) | % HONO (pH 3.5) | % NO2^− (pH 3.5) | % HONO (pH 4.0) | % NO2^− (pH 4.0) | reduction of Listeria monocytogenes (Listeria monocytogenes) | reduction of E. coli O157:H7 (E. coli O157:H7) |
| --- | --- | --- | --- | --- | --- | --- | --- | --- | --- | --- | --- | --- | --- | --- |
| O=NO [Nitrite] | 83.3% | 16.7% | 76.0% | 24.0% | 66.7% | 33.3% | 50.0% | 50.0% | 38.8% | 61.2% | 16.6% | 63.4% |  |  |
| O=C(O)/C=C/C(=O)O [fumaric acid] |  |  |  |  |  |  |  |  |  |  |  |  | much more effective than lactic or acetic acids | much more effective than lactic or acetic acids |
